Reference: patent US20240092744A1, “TRICYCLIC COMPOUND, AND PREPARATION METHOD THEREFOR AND MEDICAL USE THEREOF” (THE NATIONAL INSTITUTES OF PHARMACEUTICAL R&D CO., LTD., priority 2020, published 2024)

What was measured:
[1] = Determination of aldehyde capture rate (nonenal as model aldehyde, HPLC quantification); conditions: for Aldehyde consumption (100%): 0.05 mM compound, 0.025 mM nonenal, room temperature; for Capture rate (slope of the capture curve per unit time): higher absolute value of the slope = higher capture rate
Protocol: In the aldehyde capture test disclosed in the present invention, the stable lipid metabolite, nonenal, was used as the model aldehyde to react with the compound of the Example. The specific protocol was as follows.
0.05 mM of the compounds of the Examples of the present invention were precisely weighed respectively and dissolved in 1.2 mL of a mixed solution (v/v=1:1) of triolein (Aladdin, G105172-5g) and linoleic acid (Aladdin, L100442-25g), respectively. 2.5 mL of PBS (Solarbio, P1020) solution containing 20% Captisol® (Aladdin, Cl25030-25 g) was added, and the solution was stirred at room temperature overnight. After the example compound was completely dissolved, 0.025 mM nonenal (Sigma, 255653-5G) was added, and the solution was stirred vigorously at room temperature. […] The solution was mixed vigorously by vortex for 2 minutes, and centrifuged at a low speed of 1000 r/min for 3 minutes. The supernatant was transferred to an injection vial. The nonenal in the reaction mixture was analyzed quantitatively by high performance liquid chromatography. The adduct resulted from the example compound of the present invention and nonenal was analyzed qualitatively by high performance liquid chromatography-mass spectrometry.
Liquid Chromatograph: Waters I Class;
Column: ACQUITY UPLC HSS T3 1.8 μm;
Column temperature: 40° C.;
Liquid chromatography condition: mobile phase A: acetonitrile containing 0.1% formic acid; B: water containing 0.1% formic acid;
Injection volume: 0.5 mL.
Gradient of the mobile phases: […]
In the developed detection method, the retention time of the model aldehyde nonenal was 2.42 minutes. • Mass spectrometry conditions: • Mass spectrometer: Waters TQ-S micro • Ion source: ESI^+ • Capillary voltage: 0.5 kV • Cone voltage: 10V • Source temperature: 150° C. • Degassing temperature: 500° C., degassing flow: 1000 L/Hr • SIM mode • m/z: 225.24 [(mExample 1−OH)+H]^+, 365.42 [madduct 1+H]^+
The time-varying diagram of the capture reaction of the compounds of the examples of the present invention to nonenal is shown in FIG. 1.

[2] = test system: allergic conjunctivitis animal model; experiment: Therapeutic effect in C48/80-induced allergic conjunctivitis animal model; type: in vivo, Female Wistar rats; conditions: Wistar rats, 10 μL per eye, examined 20 minutes after administration
From the text: C48/80 is a polymer formed by the condensation of N-methyl-p-methoxyphenethylamine with formaldehyde, which acts directly on G protein and induces mast cell degranulation. After degranulation, the mast cell releases active substances such as histamine and kinin, which can cause acute type I allergic reactions such as telangiectasia and enhanced permeability. It can cause allergic conjunctivitis if applied topically to the ocular surface.
Female Wistar rats were used as the research subjects. Wistar rats (Vital River) were randomly divided into groups (5 animals per group, a total of 10 eyes). The groups are as follows: normal control group, model control group, positive drug group, and example administration group. The inflammation model was established in these groups except for the normal control group. Emedastine Difumarate Eye Drops (Emadine®, Alcon, H20181192) was used as the positive drug. Model establishment, administration and evaluation processes were as follows. […]
After 10 minutes of stimulation, different drug treatments were carried out according to the group settings. […] The clinical score was evaluated individually on the eyes of each animal according to the McDonald-Shadduck scoring system (GB/T 28538-2012). […]

[3] = test system: noninfectious uveitis animal model; experiment: Therapeutic effect in lipopolysaccharide-induced noninfectious uveitis animal model (eye drops); type: in vivo, Female lewis rats
Protocol: Female lewis rats were used as the research subjects. Lewis rats (Vital River) were randomly divided into groups (4 animals per group, a total of 8 eyes). The groups are as follows: normal control group, model control group, and example administration group. The inflammation model was established in these groups except for the normal control group.
Formulation of eye drops: • (1) Formulation of drug vehicle stock solution: […] of Na2HPO4.12H2O (Xilong Scientific, 9009012-01-09), 19 mg of NaH2PO4.2H2O (Xilong Scientific, 9009013-01-09) and 9500 mg of β-cyclodextrin (Sigma, E1930253) were precisely weighed and dissolved in 30 mL sterile water for injection (Beijing CR Double-Crane), followed by addition of […] of PEG-400 (Solarbio, 222U011). The solution was mixed well, and made up to 50 mL with water for injection. • (2) Formulation of drug solution: 10 mg of the compound of Example 2 of the present invention was weighed and dissolved in 1 mL of the vehicle stock solution, and the resulting solution was made up to 2 mL with water for injection. The content of each substance is as follows: Na2HPO4.12H2O 0.83%, NaH2PO4.2H2O 0.017%, β-cyclodextrin 9.5%, PEG-400 5.0%, active compound 0.5%. • (3) The pH value of the formulated drug solution was determined by pH test paper. If the pH value was not within 7.3±0.05, then it was adjusted to this range with 1 N HCl or 1 N NaOH. […]
The animal model was a noninfectious uveitis animal model established by intraperitoneal injection of lipopolysaccharide (derived from Escherichia coli, 055:B5, Sigma, L2880-100MG, injection dose: 2 mg/kg). […] The ocular inflammation of the animals in each group was examined with a slit lamp microscope (Jiangxi Jiangfeng, LYL-S), and evaluated according to the McDonald-Shadduck scoring system (GB/T 28538-2012).
The animals were sacrificed, and the bilateral eyeballs were enucleated. […] Quantitative analysis of total protein in aqueous humor was performed on the supernatant by a BCA protein quantification kit (Beyotime, P0010). […]

| SMILES | Aldehyde consumption (100%) ([1]; 135 minutes) [%] | Capture rate (slope of the capture curve per unit time) ([1]; 135 minutes) | Aldehyde consumption (100%) ([1]; 180 minutes) [%] | Capture rate (slope of the capture curve per unit time) ([1]; 180 minutes) | Therapeutic effect on allergic conjunctivitis (McDonald-Shadduck score, FIG. 2, in words) [2] | Ocular score (McDonald-Shadduck ocular inflammation score) ([3]; 0.5% eye drops, 20 μL/eye, 24 hours after LPS modeling, mean ± standard deviation, model control 17.0 ± 6.4, normal control 4.5 ± 0.8) | Protein concentration in aqueous humor ([3]; 0.5% eye drops, 20 μL/eye, 24 hours after LPS modeling, mean ± standard deviation, model control 1062.7 ± 423.6, normal control 225.5 ± 65.4) [µg/mL] | Therapeutic effect in ocular inflammation animal model (in words) ([3]; LPS-induced uveitis, Lewis rats, eye drops) |
| --- | --- | --- | --- | --- | --- | --- | --- | --- |
| CC(C)(O)c1cc2c(cc1N)Oc1ccccc1O2 [Example 4, 2-(3-Aminodibenzo[b,e][1,4]dioxin-2-yl)propan-2-ol] | 38.33 | −0.27 | 48.10 | −0.23 | good therapeutic effect | – | – | – |
| Cn1c2ccccc2c2cc(N)c(C(C)(C)O)nc21 [Example 2, 2-(3-Amino-9-methyl-9H-pyrido[2,3-b]indol-2-yl)propan-2-ol] | 43.48 | −0.34 | 57.75 | −0.31 | – | 8.6 ± 1.1 | 376.4 ± 164.0 | showing a therapeutic effect |
